PubChem BioAssay AID623999 (Broad Institute, 2012)
Inconclusive results are not listed. The source made the active and inactive calls.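 Rule for the calls: active = inhibition in every test run, with half-maximal concentration at most twice the top tested dose; inconclusive = the separate test runs disagree on their calls; inactive = every test run inactive, including opposite effects.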

Biological target: Cyclin-dependent kinase 5 (Homo sapiens) + Cyclin-dependent kinase 5 activator 1 (Homo sapiens) (UniProt Q00535+Q15078)
Test: inhibitors of human CDK5 activity – biochemical, ADP-Glo luminescence, dry powder samples, selectivity assay for GSK3beta inhibitor project, dose response (AID 623999)
Details: CDK5-p25 kinase, histone H1 peptide

Sequence of Cyclin-dependent kinase 5 (Homo sapiens) + Cyclin-dependent kinase 5 activator 1 (Homo sapiens) (Q00535 whole entry, looked up): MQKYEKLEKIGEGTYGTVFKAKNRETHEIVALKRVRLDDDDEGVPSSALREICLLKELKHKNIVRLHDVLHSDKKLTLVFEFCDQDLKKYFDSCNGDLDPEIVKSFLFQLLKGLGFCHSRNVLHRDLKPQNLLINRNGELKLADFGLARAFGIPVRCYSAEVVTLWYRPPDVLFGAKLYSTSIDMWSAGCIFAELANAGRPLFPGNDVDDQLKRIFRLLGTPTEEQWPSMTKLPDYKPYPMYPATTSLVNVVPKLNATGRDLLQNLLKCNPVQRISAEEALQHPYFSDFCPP
Sequence of Cyclin-dependent kinase 5 (Homo sapiens) + Cyclin-dependent kinase 5 activator 1 (Homo sapiens) (Q15078 whole entry, looked up): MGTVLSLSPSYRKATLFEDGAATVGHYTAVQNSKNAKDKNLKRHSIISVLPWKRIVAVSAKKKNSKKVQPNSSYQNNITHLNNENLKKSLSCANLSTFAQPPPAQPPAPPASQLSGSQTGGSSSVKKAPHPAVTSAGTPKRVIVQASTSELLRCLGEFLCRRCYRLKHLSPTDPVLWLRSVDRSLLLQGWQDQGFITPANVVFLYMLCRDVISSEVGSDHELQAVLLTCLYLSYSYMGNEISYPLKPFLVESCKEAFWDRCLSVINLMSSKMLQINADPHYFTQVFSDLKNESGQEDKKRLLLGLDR

Row | Compound | AC50
1 | O=S(=O)(Nc1ccccn1)c1ccc(N=Cc2c(O)[nH]c3ccc4ncsc4c23)cc1 | 0.418 µM
2 | CC1(C)CC(=O)C2=C(C1)Nc1n[nH]c(C(F)(F)F)c1C2c1cc(F)ccc1C(F)(F)F (centres undefined) | 8.29 µM
3 | CC1(C)CC(=O)C2=C(C1)Nc1n[nH]c(C(F)(F)F)c1C2c1ccc(F)cc1C(F)(F)F (centres undefined) | 22.4 µM
4 | CC1(C)CC(=O)C2=C(C1)Nc1n[nH]c(C(F)(F)F)c1C2c1cc(F)ccc1OC(F)(F)F (centres undefined) | 32.6 µM
5 | COc1ccccc1-c1c2c(nc3n[nH]c(C)c13)CCC2=O | 34.6 µM
6 | O/N=C/c1cn(-c2ccccc2)nc1-c1ccc(Cl)cc1 | 25.4 µM
7 | COc1ccccc1C1C(C(C)=O)=C(C)Nc2n[nH]c(C)c21 (centres undefined) | 9.55 µM

Other lines, results leading:

Row | AC50 | Compound
8 | 6.81 µM | Cc1[nH]nc2c1C(c1cccc(C#N)c1)C1=C(CC(C)(C)CC1=O)N2 (centres undefined)
9 | 15.1 µM | COc1ccccc1C1C2=C(CCCC2=O)Nc2n[nH]c(C)c21 (centres undefined)
10 | 16.5 µM | Cc1ccccc1C1C2=C(CC(C)(C)CC2=O)Nc2n[nH]c(C)c21 (centres undefined)
11 | 4.04 µM | Cc1[nH]nc2c1C(c1ccccc1C#N)C1=C(CC(C)(C)CC1=O)N2 (centres undefined)
12 | 10.1 µM | COc1ccccc1C1C2=C(CCC(C)(C)C2=O)Nc2n[nH]c(C)c21 (centres undefined)
13 | 43 µM | CC1(C)CC(=O)C2=C(C1)Nc1n[nH]c(C(F)(F)F)c1C2c1c(F)cccc1F (centres undefined)
14 | 2.22 µM | CCc1[nH]nc2c1C(c1ccccc1OC)C1=C(CC(C)(C)CC1=O)N2 (centres undefined)
15 | 5.82 µM | COc1ccccc1C1C2=C(CC(C)(C)CC2=O)Nc2[nH]ncc21 (centres undefined)
16 | 0.461 µM | Cc1[nH]nc2c1[C@@H](c1ccccc1C(F)(F)F)C1=C(CC(C)(C)CC1=O)N2
17 | 22.2 µM | CC1(C)CC(=O)C2=C(C1)Nc1n[nH]c(C(F)(F)F)c1C2c1ccccc1 (centres undefined)
18 | 0.841 µM | Cc1[nH]nc2c1C(c1ccccc1C(F)(F)F)C1=C(CC(C)(C)CC1=O)N2 (centres undefined)
19 | 14.5 µM | Cc1[nH]nc2c1C(C)(c1ccccc1)C1=C(CC(C)(C)CC1=O)N2 (centres undefined)
20 | 47.2 µM | CC1(C)CC(=O)C2=C(C1)Nc1n[nH]c(C(F)(F)F)c1C2c1ccccc1F (centres undefined)
21 | 47.4 µM | CC1(C)CC(=O)C2=C(C1)Nc1n[nH]c(C(F)(F)F)c1C2c1cc(F)ccc1F (centres undefined)
22 | 3.98 µM | CSc1ccccc1C1C2=C(CC(C)(C)CC2=O)Nc2n[nH]c(C)c21 (centres undefined)
23 | 4.84 µM | COc1ccccc1C1C2=C(CC(C)(C)CC2=O)Nc2n[nH]c(C(C)C)c21 (centres undefined)
24 | 5.88 µM | COc1ccccc1C1C2=C(CC3(CCCCC3)CC2=O)Nc2n[nH]c(C)c21 (centres undefined)
25 | 39.7 µM | Cc1cccc(C2C3=C(CC(C)(C)CC3=O)Nc3n[nH]c(C)c32)c1 (centres undefined)
26 | 10.9 µM | Cc1[nH]nc2c1C(c1cccc(C(F)(F)F)c1)C1=C(CC(C)(C)CC1=O)N2 (centres undefined)
27 | 27.8 µM | Cc1[nH]nc2c1C(C)C1=C(CC(C)(C)CC1=O)N2 (centres undefined)
28 | 2.57 µM | Cc1[nH]nc2c1C(c1cccc3nonc13)C1=C(CC(C)(C)CC1=O)N2 (centres undefined)
29 | 5.1 µM | Cc1[nH]nc2c1C(c1ccccc1Cl)C1=C(CC(C)(C)CC1=O)N2 (centres undefined)

Same assay, conditions: CDK5-p25 kinase, histone H1 peptide, at 46 µM (top of the series)

Row | Compound | activity change, negative = inhibition
30 | Cc1[nH]nc2nc3c(cc12)C(=O)CC(C)(C)C3 | inactive
31 | CC(C)COc1ccc(-c2nn(-c3ccccc3)cc2/C=N/O)cc1 | inactive
32 | COc1ccc(-c2nn(-c3ccccc3)cc2C(=O)N(C)C)cc1 | inactive
33 | CC1(C)CC(=O)/C(=C\c2ccccc2C(F)(F)F)C(=Nc2cc(C(F)(F)F)[nH]n2)C1 | inactive
34 | COc1ccccc1/C=C1\C(=O)CC(C)(C)CC1=Nc1cc(C(F)(F)F)[nH]n1 | inactive
35 | CC(C)c1ccc(-c2nn(-c3ccccc3)cc2/C=N/O)cc1 | inactive
36 | COc1cccc(-c2nn(-c3ccccc3)cc2/C=N/O)c1 | inactive
37 | COc1ccc(-c2nn(-c3ccccc3)cc2CO)cc1 | inactive
38 | CN(C)Cc1cn(-c2ccccc2)nc1-c1ccccc1 | inactive
39 | COc1ccc(-c2nn(-c3ccccc3)cc2C(=O)O)cc1 | inactive
40 | CC1(C)CC(=O)/C(=C\c2cccc(F)c2C(F)(F)F)C(=Nc2cc(C(F)(F)F)[nH]n2)C1 | inactive
41 | O/N=C/c1cn(-c2ccccc2)nc1-c1ccccc1 | inactive
42 | O/N=C/c1cn(-c2ccccc2)nc1-c1ccc(F)cc1 | inactive
43 | CNC(=O)c1cn(-c2ccccc2)nc1-c1ccc(OC)cc1 | inactive

Other lines, results leading:

Row | activity change, negative = inhibition | Compound
44 | inactive | COc1ccccc1[C@H]1C2=C(CC(C)(C)CC2=O)Nc2n[nH]c(C(F)(F)F)c21
45 | inactive | Cc1[nH]nc2c1C(c1ccc(C(F)(F)F)cc1)C1=C(CC(C)(C)CC1=O)N2 (centres undefined)
46 | inactive | COc1ccccc1C1C2=C(CC(C)(C)CC2=O)Nc2onc(C)c21 (centres undefined)
47 | inactive | COc1ccccc1C1C2=C(CC(C)(C)CC2=O)Nc2n[nH]c(C(C)(C)C)c21 (centres undefined)
48 | inactive | Cc1[nH]nc2c1C(C1CCCCC1)C1=C(CC(C)(C)CC1=O)N2 (centres undefined)
49 | inactive | Cc1[nH]nc2c1C(c1ccc(C#N)cc1)C1=C(CC(C)(C)CC1=O)N2 (centres undefined)
